Assay results published in PubChem BioAssay (NCI).
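Briefly, cells in 96-well plates were exposed to five compound concentrations for 48 h, and endpoints were estimated by linear interpolation. TGI is the concentration that stops growth completely.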

How the values were obtained:
Assay in all cases: NCI-60 cell line screen, 48 h
MOLT-4 leukemia = system: MOLT-4 leukemia
OVCAR-3 ovarian = system: OVCAR-3 ovarian
OVCAR-5 ovarian = system: OVCAR-5 ovarian
SK-MEL-2 melanoma = system: SK-MEL-2 melanoma
SK-MEL-28 melanoma = system: SK-MEL-28 melanoma
TK-10 renal = system: TK-10 renal
UACC-257 melanoma = system: UACC-257 melanoma
BT-549 breast = system: BT-549 breast
DU-145 prostate = system: DU-145 prostate
MCF7 breast = system: MCF7 breast

Row | SMILES | TGI (MOLT-4 leukemia) | TGI (OVCAR-3 ovarian) | TGI (OVCAR-5 ovarian) | TGI (SK-MEL-2 melanoma) | TGI (SK-MEL-28 melanoma) | TGI (TK-10 renal) | TGI (UACC-257 melanoma) | TGI (BT-549 breast) | TGI (DU-145 prostate) | TGI (MCF7 breast)
1 | Cc1ccc(S(=O)(=O)N(CC(=O)O)c2ccccc2)cc1 | > 100 µM | > 100 µM | > 100 µM | > 100 µM | > 100 µM | > 100 µM | > 100 µM | – | – | –
2 | CO/N=C/c1cc(OC)c(OC)c(OC)c1 | > 100 µM | > 100 µM | > 100 µM | > 100 µM | > 100 µM | > 100 µM | > 100 µM | – | – | –
3 | CCCN=C(N)NC#N | > 100 µM | > 100 µM | > 100 µM | > 100 µM | > 100 µM | > 100 µM | > 100 µM | – | – | –
4 | CC1(C)COC(c2cccnc2/C=N/O)=N1 | > 100 µM | > 100 µM | > 100 µM | > 100 µM | > 100 µM | > 100 µM | > 100 µM | – | – | –
5 | CCOc1ccccc1C=C1c2ccccc2C(=O)c2ccccc21 | 29.4 µM | 10.5 µM | > 100 µM | 11.9 µM | > 100 µM | 45.6 µM | 47 µM | – | – | –
6 | C=C1C(=O)OC2CCN3CC=C(COC(=O)C(C)(O)C4(CO4)C1C)C23 (stereo unspecified) | > 100 µM | – | – | > 100 µM | > 100 µM | > 100 µM | > 100 µM | > 100 µM | > 100 µM | > 100 µM
7 | N#CC(N)(C(=O)CCC(=O)Nc1cccc(Cl)c1)c1ccc(Cl)cc1 (stereo unspecified) | > 100 µM | > 100 µM | – | > 100 µM | > 100 µM | > 100 µM | > 100 µM | – | – | –
8 | Cc1ccc(NC(=O)C(=O)C(C(=O)c2ccc3ccccc3c2)C2OC(=O)c3ccccc32)cc1C (stereo unspecified) | 25.9 µM | 48.6 µM | 71.3 µM | 36.3 µM | 26.9 µM | 94.6 µM | 42.4 µM | – | – | –
9 | NC(=O)NC1C(c2ccccc2)=C1c1ccccc1 | 17.7 µM | 82.9 µM | 64.4 µM | – | 33.3 µM | 53.7 µM | 38.4 µM | 26.7 µM | > 100 µM | 33.6 µM
10 | CN(C)c1nc2ccccc2[nH]1 | > 100 µM | > 100 µM | > 100 µM | > 100 µM | > 100 µM | > 100 µM | > 100 µM | – | – | –
11 | NC(=Nc1c([N+](=O)[O-])cnc2ccccc12)N1CCOCC1 | > 100 µM | > 100 µM | > 100 µM | > 100 µM | > 100 µM | > 100 µM | – | > 100 µM | > 100 µM | > 100 µM
12 | CS(=O)(=O)Nc1ccc2c(c1)oc(=O)c1ccccc12 | > 100 µM | > 100 µM | > 100 µM | > 100 µM | > 100 µM | – | > 100 µM | > 100 µM | > 100 µM | > 100 µM
13 | COc1cc(C#CC(=O)OC/C=C/c2ccc3c(c2)OCO3)cc(OC)c1OC | – | 63.3 µM | > 100 µM | 25.4 µM | > 100 µM | 60.8 µM | 70.9 µM | 52.3 µM | > 100 µM | 64.8 µM
14 | O=C(CCn1[nH]c(=O)c(Cl)c(Cl)c1=O)NO | > 100 µM | > 100 µM | > 100 µM | > 100 µM | > 100 µM | > 100 µM | > 100 µM | – | – | –
